# Results taken from US20250361272A1, “HISTIDINE-BASED UNNATURAL AMINO ACID, ITS PRODUCTION AND USE” (priority 2024, published 2025).
# Residues, ends and D or L forms follow the SMILES beside them.
# How the values were obtained:
# [1] = in vitro; settings: human, 30% human serum in RPMI medium
# Method: The experiment was performed in RPMI medium with 30% human serum at 37° C. Aliquots of the solution were analysed by HPLC-MS and the relative content was determined using an internal standard (phenol). The experiment was performed in three independent experiments.
# [2] = test system: Bacillus subtilis; experiment: Minimum inhibitory concentration (MIC) in Mueller-Hinton medium; format: cell-based; settings: relative to Com2
# Method: The experiments were performed in Mueller-Hinton medium in three independent experiments.
# Analogously to P14, these amino acids have been incorporated into the parental sequence of Com2 and were partially tested on their antimicrobial activity against Gram-positive Bacillus Subtilis 3610 NCIB.
# [3] = test system: E. feacium; format: cell-based
# [4] = test system: S. aureus; experiment: MIC against ESKAPE pathogens in Mueller-Hinton medium; format: cell-based; settings: Gram-positive
# [5] = test system: S. pneumoniae; format: cell-based
# [6] = test system: K. pneumoniae; format: cell-based
# [7] = test system: A. baumannii; format: cell-based
# [8] = test system: P. aeruginosa; format: cell-based
# [9] = test system: E. cloacae; format: cell-based
# [10] = test system: E. coli; experiment: MIC against ESKAPE pathogens in Mueller-Hinton medium; format: cell-based; settings: Gram-negative
# [11] = Viability of HCT116 cells (cytotoxicity); format: cell-based; settings: human; HCT116 cells in DMEM with 10% FBS; read-out: cytotoxic concentration CC50
# Method: (§1) FIGS. 3A and 3B show the viability of HCT116 cells in DMEM with 10% FBS and 1% penicillin/streptomycin (FIG. 3A). The haemolysis experiments were performed with fresh blood from a healthy donor. Both experiments were performed in three independent experiments.
# (§2) This is therefore >65-fold higher than the minimum inhibitory concentration against B. subtilis. […] Consequently, the P14 peptide as an antibiotic offers a distinct concentration window for therapeutic use.
# [12] = test system: HCT116 cells; experiment: Viability of HCT116 cells (cytotoxicity); format: cell-based; settings: CC50 (HCT116) over MIC (B. subtilis)
# Method: as §1, §2
# [13] = test system: human blood; experiment: Haemolysis experiment with fresh blood from a healthy donor; format: cell-based
# Method: as §1, §2
# 3) Haemolysis experiments using human blood from a healthy donor show a haemolytic concentration >50-fold above the minimum inhibitory concentration against B. subtilis.
# [14] = test system: K. pneumoniae; experiment: Infection model 1: treatment of K. pneumoniae-infected A549 lung cells; format: cell-based; settings: at 8 μM, surviving bacterial colonies
# Method: (§3) The number of surviving bacterial colonies after treatment with peptide is shown.
# The peptide P14 was tested as an antibiotic against the treatment of K. pneumoniae-infected A549 lung cells.
# [15] = test system: A. baumannii; experiment: Infection model 2: mouse skin infection with A. baumannii; format: in vivo; settings: A. baumannii infected mice, superficial abrasion
# Method: as §3
# Infection of the mice was induced by superficial abrasion and incubation with the bacterial culture.
# [16] = test system: B. subtilis NCIB 3610; experiment: Fluorescence microscopy of B. subtilis stained with HADA (peptidoglycan synthesis); format: cell-based
# Description: Scale bars represent 2 μm. BF are the bright light images.
# Fluorescence microscopy of B. subtilis stained with HADA, showing newly synthesised peptidoglycan from control cells.
Compound,half-life [1] [min],minimum inhibitory concentration (MIC) compared to the parent peptide (Com2) [2] [fold],MIC [3] [µM],MIC [4] [µM],MIC [5] [µM],MIC [6] [µM],MIC [7] [µM],MIC [8] [µM],MIC [9] [µM],MIC [10] [µM],CC50 [11] [µM],cytotoxic concentration relative to MIC against B. subtilis [12] [fold],haemolytic concentration relative to the MIC value ([13]; HC50 over MIC (B. subtilis)) [fold],haemolytic concentration HC50 ([13]; fresh blood from a healthy donor) [µM],inhibition of bacterial growth in infected A549 lung cells [14],potency in mouse skin infection compared to polymyxin B [15],activity in mouse skin infection compared to control peptide P3 ([15]; surviving bacterial colonies),HADA staining of newly synthesised peptidoglycan [16]
"N=C(N)NCCC[C@H](NC(=O)[C@H](Cc1c[nH]c2ccccc12)NC(=O)[C@H](Cc1c[nH]c2ccccc12)NC(=O)[C@H](CCCNC(=N)N)NC(=O)[C@@H](N)CCCNC(=N)N)C(=O)N[C@@H](Cc1ccccc1)C(N)=O [Com2, H2N-RRWWRF-CONH2, reference compound] (H-RRWWRF-NH2)",~24,,,,,,,,,,,,,,,,,
"CC(=O)Nc1ccc(C(=O)N[C@@H](CCCNC(=N)N)C(=O)N[C@@H](CCCNC(=N)N)C(=O)N[C@@H](Cc2c[n+](Cc3ccc4ccccc4c3)cn2Cc2ccc3ccccc3c2)C(=O)N[C@@H](Cc2c[n+](Cc3ccc4ccccc4c3)cn2Cc2ccc3ccccc3c2)C(=O)N[C@@H](CCCNC(=N)N)C(=O)N[C@@H](Cc2ccccc2)C(N)=O)cc1 [Peptide P14, Aba-RR-Hdn-Hdn-RF-CONH2]",> 840,> 24,0.8,1.6,2.2,12.5,6.3,12.5,25,25,50.4 ± 4.48,> 65,> 50,38.62 ± 2.58,complete inhibition of bacterial growth,can be compared with that of the commonly used polymyxin B,higher activity than the control peptide P3,inhibits bacterial polyglycan synthesis
"CN[C@H](CC(C)C)C(=O)N[C@H]1C(=O)N[C@@H](CC(N)=O)C(=O)N[C@H]2C(=O)N[C@H]3C(=O)N[C@H](C(=O)N[C@H](C(=O)O)c4cc(O)cc(O)c4-c4cc3ccc4O)[C@H](O)c3ccc(c(Cl)c3)Oc3cc2cc(c3O[C@@H]2O[C@H](CO)[C@@H](O)[C@H](O)[C@H]2O[C@H]2C[C@](C)(N)[C@H](O)[C@H](C)O2)Oc2ccc(cc2Cl)[C@H]1O [vancomycin, reference compound]",,,,,,,,,,,,,,,,,,no HADA binding to the cell periphery is visible
